In patent publication US20070189984A1, “Agents for use on skin and/or hair containing quadruply substituted cyclohexene compounds” (BEIERSDORF AF,, priority 2003, published 2007):

Tested on: primary normal human melanocytes
Experiment: melanogenesis assay (C14-tyrosine incorporation)
Format: cell-based
Settings: incubation for 3 days, average, n=3
Protocol: By way of example, the test for the compound 6-methyl-8-(2,6,6-trimethylcyclohex-1-en-1-yl)octa-3,5-dien-2-one is given.
A melanogenesis assay was carried out after incubation for 3 days of primary normal human melanocytes with test substance compared to control. The numbers given in the table indicate the melanogenesis rates based on the untreated control (=100%) (measured as C14-tyrosine incorporation).

## CC(=O)/C=C/C=C(\C)CCC1=C(C)CCCC1(C)C [(3E,5E)-6-methyl-8-(2,6,6-trimethylcyclohex-1-en-1-yl)octa-3,5-dien-2-one]
0.1 μg/ml test substance
  melanogenesis rate based on the untreated control (=100%), measured as C14-tyrosine incorporation: 127%
1 μg/ml test substance
  melanogenesis rate based on the untreated control (=100%), measured as C14-tyrosine incorporation: 157%
